This note sets out measurements from PubChem BioAssay AID1159612.

Active and inactive are the calls of the source.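 How the source made its calls: active means compounds displacing the labeled ligand from RAR alpha with half-maximal potency at 10 µM or stronger; inactive means the rest.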

In this experiment the target is Retinoic acid receptor alpha (Homo sapiens) (UniProt P10276). The experiment is described as follows: ligand displacement at retinoic acid receptor alpha – biochemical, [3H]9-cis-retinoic acid, RARalpha, dose response (AID 1159612). The note with it: RARalpha radioligand binding, [3H]9-cis-RA displacement.
Sequence of Retinoic acid receptor alpha (Homo sapiens) (P10276 whole entry, looked up): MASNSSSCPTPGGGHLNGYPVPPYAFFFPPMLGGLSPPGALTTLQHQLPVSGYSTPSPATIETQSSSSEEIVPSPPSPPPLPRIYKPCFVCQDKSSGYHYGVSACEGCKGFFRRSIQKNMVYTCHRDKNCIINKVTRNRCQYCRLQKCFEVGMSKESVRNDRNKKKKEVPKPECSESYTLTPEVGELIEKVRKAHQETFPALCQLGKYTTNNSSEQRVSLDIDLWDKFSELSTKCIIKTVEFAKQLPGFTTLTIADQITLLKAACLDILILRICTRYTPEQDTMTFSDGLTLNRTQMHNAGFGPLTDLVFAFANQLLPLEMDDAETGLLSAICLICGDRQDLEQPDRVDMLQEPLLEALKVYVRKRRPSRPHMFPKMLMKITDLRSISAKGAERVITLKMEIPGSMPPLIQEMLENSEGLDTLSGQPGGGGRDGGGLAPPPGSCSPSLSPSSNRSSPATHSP

In the case of `CC1=C[C@H](O)CC(C)(C)[C@H]1/C=C/C(C)=C/C=C/C(C)=C/C=C/C=C(C)/C=C/C=C(C)/C=C/C1=C(C)C[C@@H](O)CC1(C)C`, the IC50 entry was “inactive”.
